We go through 3 compounds from article PMC10804667, “Molecular mechanism of Fe^3+ binding inhibition to Vibrio metschnikovii ferric ion‐binding protein, FbpA, by rosmarinic acid and its hydrolysate, danshensu” (Protein Science : A Publication of the Protein Society, 2024).

In brackets after ≈: the same amount, converted by molar mass. Several values for one entry are separate records, joined by “and”; a condition that tells them apart may be missing. Equal entries are not always repeated.

The nature of data set [1]: Fe3+ reduction capacity (o-phenanthroline assay). The conditions noted are these: 40 μM Fe^3+; concentration giving 20 μM Fe^2+; read-out: EC50 for reduction from Fe^3+ to Fe^2+. As for the experimental part:
Solutions containing 40 μM FeCl3 and varying concentrations of RA, DSS, and CA (0, 0.625, 1.25, 5, 10, 20, and 40 μM) were prepared and analyzed. Each sample was combined with 0.25% o‐phenanthroline (2 mL) followed by a pH adjustment to 3.5 with HCl, and Milli‐Q water was added to reach a final volume of 25 mL. After incubation at room temperature for 1 h, the absorbance at 510 nm was measured using a microplate spectrophotometer (Benchmark Plus, Bio‐Rad), and the concentration of Fe^2+ was determined using FeSO4·7H2O as a standard. The Fe^2+ concentrations were plotted and fitted as a function of Log2(inhibitor concentration) using GraphPad Prism (version: 9.5.0) software with a nonlinear regression model. The half maximal effective concentration (EC50) was calculated by reading the inhibitor concentrations at an Fe^2+ concentration of 20 μM.

Data set [2] has as its target VmFbpA. Put plainly: Isothermal titration calorimetry (ITC) of ligand binding to VmFbpA. Details: species or system Vibrio metschnikovii. The conditions noted are these: 298 K, 20 mM HEPES pH 8.0, 50 mM NaCl, apo VmFbpA, read-out: K D for VmFbpA. On the procedure:
The 6× His‐free apo VmFbpA samples were dialyzed overnight at 4°C against dialysis buffer (20 mM pH 8.0 HEPES, 50 mM NaCl). ITC was performed using MicroCal iTC200 (Malvern). RA, DSS, or CA was dissolved in dialysis buffer at a final concentration of 400 μM and injected 20 times by a motor‐driven syringe into 200 μL of 20 μM Apo VmFbpA. The first injection volume was 0.1 μL and subsequent injection volumes were 2.0 μL. The reference cell of the microcalorimeter was filled with 200 μL of the corresponding dialysis buffer. The titrations were performed at room temperature. The data were analyzed using MicroCal LLC iTC 200 for Windows (Malvern). All experiments were repeated at least twice to ensure reproducibility.

Data set [3] relates to V. metschnikovii. Put plainly: Bacteriostatic assay. The class given is cell-based. The conditions noted are these: Vibrio metschnikovii, 20 h, NB medium, 37°C, 20 h culture; concentration at inhibitory rate of 95%. As for the experimental part: A pre‐culture of V. metschnikovii was prepared in 5 mL of NB medium (3.0 g/L meat extract, 5.0 g/L meat peptone, 10.0 g/L NaCl, pH 7.0) at 37°C. When the OD600 reached ~0.6, 2 μL of the pre‐culture was inoculated into 200 μL of NB medium for the bacteriostatic assay. The culture was performed at 37°C in a 96‐well plate. Bacteriostatic agents (RA, DSS, and CA) were tested at a range of concentrations (5000 μM to 39 μM). The cultures without bacteriostatic agents were used as a natural growth control and the cultures without bacteria were used as the respective sterile controls (Blanks). The OD600 was measured using a microplate spectrophotometer (Benchmark Plus, Bio‐Rad).
The antibacterial inhibitory rates were calculated based on the following formula after culture for 20 h: Inhibitory rates%=1−OD600,NG−OD600,BKs−OD600,Is−OD600,BKs/OD600,NG−OD600,BKs×100%,
where NG, Is, and BKs refer to the natural growth control group, experimental groups with inhibitors, and their respective sterile control groups, respectively.
The inhibitory rate was plotted and fitted as a function of Log2(inhibitor concentration) using GraphPad Prism (version: 9.5.0) software with a nonlinear regression model. The MIC was calculated by reading the concentrations at the inhibitory rate of 95%.

Data set [4] deals with VmFbpA. The data set can be described thus: 6×His-based VmFbpA inhibition assay (pull-down assay) of Fe3+ binding. It counts as biochemical, Vibrio metschnikovii. The conditions noted are these: 60 min at 4°C, 20 mM Tris–HCl pH 8.0, 50 mM NaHCO3, 100 mM NaCl, read-out: IC50 to VmFbpA (inhibition of Fe^3+ binding). On the procedure: (§1) Fe^3+‐bound His6‐VmFbpA (30 μM, 200 μL) was loaded onto a 40 μL Ni‐NTA slurry resin (bed volume: 20 μL) in a Micro Bio‐Spin column (Bio‐Rad) and incubated at 4°C for 30 min. The column was extensively washed with wash buffer (20 mM Tris–HCl, pH 8.0, 50 mM NaHCO3, 100 mM NaCl). Various concentrations of RA, DSS, or CA (200 μL) were added to the column and incubated for 60 min at 4°C in a solvent consisting of 20 mM Tris–HCl, pH 8.0, 50 mM NaHCO3, and 100 mM NaCl. The column was washed extensively with wash buffer and eluted with 100 μL of elution buffer (wash buffer containing 250 mM imidazole). The Fe concentration of the eluent was determined using ICP‐MS as reported previously (Lu et al. [2019]) and adjusted to the protein concentration, which was measured using a Pierce 660 nm Protein Assay. Samples without FeCl3 were used as a negative control group and samples lacking inhibitors were used as a positive control group. All buffers contained 0.3% DMSO to solubilize the inhibitors, unless otherwise indicated.
(§2) The protein inhibitory rates were calculated using the following formula: Inhibitory rates%=1−Conc.Fesample−Conc.Feapo/Conc.Feholo−Conc.Feapo×100%
(§3) The inhibitory rate was plotted and fitted as a function of inhibitor concentration by a logarithmic function model using GraphPad Prism (version: 9.5.0) software. The 50% inhibitory concentration (IC50) was calculated by reading the concentration at the inhibitory rate of 50%.

The subject of data set [5] is V. metchnikovii. Details: method as in Lu et al. [2021]. The conditions noted are these: 1000 μM; ref Lu et al. [2021]; cited from earlier work.
Data set [6] can be described thus: Stability of RA in gel filtration buffer by RPC. The class given is physicochemical. On the procedure: The stability of RA (1 mg/mL) in gel filtration buffer (20 mM Tris–HCl, pH 8.0, and 100 mM NaCl) at 20°C was assessed in the presence and absence of VmFbpA (molar ratio: 1 to 1) by the same RPC analysis. Sampling was performed every week and diluted 100 times with buffer before injecting into a RESOURCE RPC column. The other conditions are the same as described above.
For orientation: SEC sorts molecules by how far they enter the pores of the column.

Data set [7] has as its system Escherichia coli. Details: method as in Lu et al. [2021]. The conditions noted are these: 1000 μM; ref Lu et al. [2021]; cited from earlier work.
On the set-up of data set [8]: method as in Sik et al. [2021]. The conditions noted are these: after 3 months of storage; ref Sik et al. [2021]; cited from earlier work.
The target in data set [9] is (UniProt Z9CIZ5JT55). Put plainly: 6×His-based VmFbpA inhibition assay (pull-down assay) of Fe3+ binding. It counts as biochemical, Vibrio metschnikovii. The conditions noted are these: 60 min at 4°C, 20 mM Tris–HCl pH 8.0, 50 mM NaHCO3, 100 mM NaCl, read-out: IC50 to VmFbpA (inhibition of Fe^3+ binding). As for the experimental part: as §1, §2, §3

For `O=C(O)/C=C/c1ccc(O)c(O)c1` [CA, caffeic acid], the EC50 in [1] was determined as 31 ± 1 µM. Further, the Kd in data set [2] is 18 µM and ~18 µM. Besides, the minimal inhibitory concentration (MIC) in data set [3] is > 3000 µM. Moreover, the IC50 in [4] amounted to 6000 ± 2000 µM.

As to `O=C(O)[C@H](O)Cc1ccc(O)c(O)c1` [DSS, danshensu], the concentration for a half-maximal effect (EC50) in data set [1] was determined as 23 ± 1 µM. For the same compound, in data set [2], the Kd was 0.9 µM and ~0.9 µM. In addition, the IC50 in data set [4] worked out at 4000 ± 1000 µM.

Regarding `O=C(/C=C/c1ccc(O)c(O)c1)O[C@H](Cc1ccc(O)c(O)c1)C(=O)O` [RA, Rosmarinic acid], the EC50 in data set [1] worked out at 14.4 ± 0.1 µM. Besides, the “effect on growth of V. metchnikovii” value in data set [5] is reported as “significantly reduced the growth”. Also, the Kd in data set [2] turned out to be 1.1 ± 0.5 µM. In data set [3], this compound returned an MIC of 440 ± 70 µM (≈ 159 µg/mL). The “degradation of RA” value in data set [6] (20 mM Tris–HCl pH 8.0, 100 mM NaCl, stored at 20°C for 1 week) came to 5%. For the same compound, the “degradation rate of RA” value in [6] (20 mM Tris–HCl pH 8.0, 100 mM NaCl, stored at 20°C for 2 weeks) is reported as ~ 30%. In addition, the “change of degradation rate of RA in the presence of VmFbpA” value in data set [6] (VmFbpA added at molar ratio 1:1, gel filtration buffer) is recorded as “did not change significantly”. In addition, the “effect on growth of Escherichia coli” value in data set [7] is given as “did not affect the growth”. The “hydrolysis rate of RA aqueous solution” value in data set [8] was “exceeded 10%”. In addition, the IC50 in data set [9] is 2200 ± 300 µM.

As a reminder, the EC50 is the concentration at which the effect is half-maximal. What is called MIC is the lowest concentration found to suppress growth. Read a high MIC as a need for much substance. The IC50 is the midpoint of a concentration-inhibition curve.
